Experimental data published in article PMC8145572 (Viruses, 2021).
Entries after “also recorded” stand apart in the source; their conditions may differ. Read-outs that look alike come from different tables or passages of the source.

How the values were obtained:
[1] = system: Dengue virus serotype 2 (DENV2), strain New Guinea C; assay: Antiviral evaluation; format: cell-based; settings: HFF-1 cells; for EC50: MOI 0.1, AUC of viral burden over 2 days; for viral burden in all treatment arms: all concentrations
[2] = WST-1 cell proliferation assay, uninfected SK-N-MC cells; settings: human
SK-N-MC cells = assay: as above; settings: uninfected SK-N-MC cells; for cytotoxicity in uninfected cells: evaluated concentrations; for CC50: 72 h
[3] = system: DENV-infected HUH-7 cells; assay: WST-1 cell viability assay, DENV-infected HUH-7 cells; format: cell-based, human; settings: MOI 0.01, 3 days
[4] = system: DENV-infected HFF-1 cells; assay: WST-1 cell viability assay, DENV-infected HFF-1 cells; format: cell-based, human; settings: MOI 1, 3 days
[5] = WST-1 cell proliferation assay, uninfected HUH-7 cells; settings: human
HUH-7 cells = assay: as above; settings: uninfected HUH-7 cells; for cytotoxicity in uninfected cells: evaluated concentrations; for CC50: 72 h
HFF-1 cells = assay: WST-1 cell proliferation assay, uninfected HFF-1 cells; settings: uninfected HFF-1 cells; for cytotoxicity in uninfected cells: evaluated concentrations; for CC50: 72 h
[6] = as above; settings: human
[7] = system: DENV-infected SK-N-MC cells; assay: WST-1 cell viability assay, DENV-infected SK-N-MC cells; format: cell-based, human; settings: MOI 0.1, 3 days
[8] = system: Dengue virus serotype 2 (DENV2), strain New Guinea C; assay: Antiviral evaluation; format: cell-based; settings: for EC50: MOI 0.01, AUC of viral burden over 3 days
[9] = system: Dengue virus serotype 2 (DENV2), strain New Guinea C; assay: Antiviral evaluation; format: cell-based; settings: SK-N-MC cells; for EC50: MOI 0.1, AUC of viral burden over 4 days
[10] = Phase I study, one-time dose of 1000 mg; cited from earlier work
[11] = system: Dengue virus serotype 2 (DENV2), strain New Guinea C; assay: Combination drug assay UV-4B and IFN, DENV-infected HUH-7 cells, plaque assay; format: cell-based; settings: day 2, 25 µM
[12] = system: Dengue virus serotype 2 (DENV2), strain New Guinea C; assay: Combination drug assay UV-4B and IFN, DENV-infected SK-N-MC cells, plaque assay; format: cell-based; settings: 400 µM

Compound: NC(=O)c1nc(F)c[nH]c1=O [FAV, favipiravir]
- EC50 ([1]; Dengue virus, DENV2, 48 h): > 500 µM
- viral burden in all treatment arms [1]: completely ineffective
- CC50 at 72 h [2]: > 500 µM
- cytotoxicity in uninfected cells (SK-N-MC cells): no cytotoxicity
- cell viability of infected cells [3]: limited effect on cell health
- cell viability of infected cells [4]: limited effect on cell health
- CC50 at 72 h [5]: > 500 µM
- cytotoxicity in uninfected cells (HUH-7 cells): no cytotoxicity
- cytotoxicity in uninfected cells (HFF-1 cells): no cytotoxicity
- CC50 at 72 h [6]: > 500 µM
- cell viability of infected cells [7]: limited effect on cell health
- EC50 ([8]; Dengue virus, DENV2, Huh-7, 72 h, HUH-7 cells): 147 µM
- decrease in titers relative to the control ([8]; HUH-7 cells, 250 µM): approximate tenfold decrease
- EC50 ([8]; HUH-7 cells, read-out: EC50): 149 µM
- maximum reduction in viral titers ([8]; HUH-7 cells, highest concentration evaluated): 1.2 log10 PFU/mL
- EC50 ([9]; Dengue virus, DENV2, 96 h): 288 µM
- lowering of viral titers ([9]; Day 2, 250 µM): approximately 0.6 log10 PFU/mL
- total reduction of viral titers ([9]; Day 2, 500 µM): 1.3 log10 PFU/mL
- additional decrease of viral titers over 250 µM ([9]; Day 2, 500 µM versus 250 µM): 0.7 log10 PFU/mL

Compound: CC(C)OC(=O)[C@H](C)N[P@](=O)(OC[C@H]1O[C@@H](n2ccc(=O)[nH]c2=O)[C@](C)(F)[C@@H]1O)Oc1ccccc1 [SOF, sofosbuvir]
- EC50 ([1]; Dengue virus, DENV2, 48 h): > 10 µM
- viral burden in all treatment arms [1]: comparable to the no treatment control
- CC50 at 72 h [2]: > 10 µM
- cytotoxicity in uninfected cells (SK-N-MC cells): no cytotoxicity
- cell viability of infected cells [3]: yielded improvements in cell viability
- cell viability of infected cells [4]: did not change relative to the uninfected control
- CC50 at 72 h [5]: > 10 µM
- cytotoxicity in uninfected cells (HUH-7 cells): no cytotoxicity
- cytotoxicity in uninfected cells (HFF-1 cells): no cytotoxicity
- CC50 at 72 h [6]: > 10 µM
- cell viability of infected cells [7]: minimal changes in cell viability
- EC50 ([8]; Dengue virus, DENV2, 72 h, HUH-7 cells, read-out: EC50): 6.96 µM
- viral titers ([8]; HUH-7 cells, 10 µM): below the limit of detection
- reduction in viral burden ([8]; HUH-7 cells, 4 and 6 µM): ~100 fold
- EC50 ([9]; Dengue virus, DENV2, 96 h): > 10 µM
- viral burden in all treatment arms ([9]; all concentrations): comparable to the no treatment control

Compound: COCCCCCCCCCN1C[C@H](O)[C@@H](O)[C@H](O)[C@H]1CO.Cl [UV-4B]
- EC50 [1]: 37.4 µM
- CC50 (SK-N-MC cells): > 400 µM
- Cmax [10]: ~40 µM
- cell viability of infected cells [3]: remained comparable to the infected control; also recorded: declines in cell viability observed at UV-4B concentrations of 100 and 400 µM
- cell viability of infected cells [4]: moderate declines in viability observed at 100 and 400 µM
- CC50 (HUH-7 cells): 135 µM
- CC50 (HFF-1 cells): > 400 µM
- reduction of viral titers, monotherapy [11]: 1.7 log10 PFU/mL
- decline in peak viral titers, monotherapy [12]: 3.8 log10 PFU/mL
- cell viability of infected cells [7]: concentrations ≥ 25 µM caused dramatic increases in cell viability
- EC50 ([8]; HUH-7 cells, read-out: EC50): 23.8 µM
- EC50 [9]: 49.4 µM
- decrease in viral titers ([9]; day 2, 25 µM): 1.6 log10 PFU/mL
- decrease in viral titers ([9]; day 2, 400 µM): 3.6 log10 PFU/mL

Compound: interferon-alpha [IFN]
- CC50 (SK-N-MC cells): 1074 IU/mL
- cell viability of infected cells [3]: concentrations ≥ 10 IU/mL markedly increased cell viability
- cell viability of infected cells [4]: Percent cell viability stayed constant
- CC50 (HUH-7 cells): >10,000 IU/mL
- CC50 (HFF-1 cells): >10,000 IU/mL
- reduction of peak titers ([8]; HUH-7 cells, 100 IU/mL): 2.4 log10 PFU/mL
- effect on production of infectious virus ([8]; HUH-7 cells, 10,000 IU/mL): completely curbed the production of infectious virus
